Experimental data as given in ChEMBL document CHEMBL6153139, “Discovery of Novel Isoxazole-Based Small-Molecule Toll-Like Receptor 8 Antagonists” (J Med Chem, 2025).
Active and inactive are the calls of the source. The rule behind the calls is not given here.

Legend:
[1] = Cytotoxicity against HEK-Blue hTLR8 cells assessed as reduction in cell viability at 25 to 50 uM incubated for 24 hrs by MTT assay; format: toxicity, cell-based; conditions: human, hek-blue htlr8, 24 h, dose 25-50 µM
THP-1 = test: Cytotoxicity against human THP-1 cells assessed as reduction in cell viability upto 100 uM incubated for 24 hrs by MTT assay; format: toxicity, cell-based; conditions: thp-1, 24 h
[2] = Cytotoxicity against human PBMC cells assessed as reduction in cell viability upto 100 uM incubated for 24 hrs by LDH release assay; format: toxicity, cell-based
[3] = tested on: T1, Toll-like receptor 8 (Homo sapiens), Q9NR97 [F495L]; test: Antagonist activity at human TLR8 F495L mutant transfected in HEK293 cells assessed as inhibition of TL8-506 induced NFkappaB activation at 1 uM preincubated with compound for 1 hrs followed by TL8-506 addition and measured after 24 hrs by Quanti-blue reagent based SEAP reporter assay; format: cell-based; conditions: filed as antagonist
T1 sequence (whole entry): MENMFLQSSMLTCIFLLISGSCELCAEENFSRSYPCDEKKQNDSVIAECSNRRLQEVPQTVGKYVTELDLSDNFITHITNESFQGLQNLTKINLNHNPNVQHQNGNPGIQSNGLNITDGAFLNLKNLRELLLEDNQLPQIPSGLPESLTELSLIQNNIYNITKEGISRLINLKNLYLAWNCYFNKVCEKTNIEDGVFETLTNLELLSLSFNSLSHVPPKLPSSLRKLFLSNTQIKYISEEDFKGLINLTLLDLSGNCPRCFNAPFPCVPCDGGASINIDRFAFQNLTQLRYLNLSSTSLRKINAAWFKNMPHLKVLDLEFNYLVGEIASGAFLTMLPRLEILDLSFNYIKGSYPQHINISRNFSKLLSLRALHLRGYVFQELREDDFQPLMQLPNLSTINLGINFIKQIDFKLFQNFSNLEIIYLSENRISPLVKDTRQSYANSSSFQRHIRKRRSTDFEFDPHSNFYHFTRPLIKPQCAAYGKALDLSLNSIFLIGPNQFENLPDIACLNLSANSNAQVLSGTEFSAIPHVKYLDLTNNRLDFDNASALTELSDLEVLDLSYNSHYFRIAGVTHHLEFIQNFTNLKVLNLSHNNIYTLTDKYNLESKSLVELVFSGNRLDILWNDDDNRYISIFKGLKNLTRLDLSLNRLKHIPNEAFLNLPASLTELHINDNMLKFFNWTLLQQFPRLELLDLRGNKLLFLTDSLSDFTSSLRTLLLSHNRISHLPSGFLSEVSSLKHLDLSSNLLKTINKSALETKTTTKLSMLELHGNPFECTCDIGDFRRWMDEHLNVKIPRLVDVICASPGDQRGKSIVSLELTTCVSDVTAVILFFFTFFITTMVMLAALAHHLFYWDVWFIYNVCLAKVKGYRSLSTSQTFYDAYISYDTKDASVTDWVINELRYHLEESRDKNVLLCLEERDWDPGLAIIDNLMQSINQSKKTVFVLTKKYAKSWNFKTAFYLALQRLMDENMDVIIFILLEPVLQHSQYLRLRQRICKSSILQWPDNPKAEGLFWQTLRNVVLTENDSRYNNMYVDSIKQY

[4] = tested on: T1, Toll-like receptor 8 (Homo sapiens), Q9NR97 [F495L]; test: Antagonist activity at human TLR8 F495L mutant transfected in HEK293 cells assessed as inhibition of CL075 induced NFkappaB activation at 1 uM preincubated with compound for 1 hrs followed by CL075 addition and measured after 24 hrs by Quanti-blue reagent based SEAP reporter assay; format: cell-based; conditions: filed as antagonist

Structure (SMILES) | Activity [1] | Activity (THP-1) | Activity [2] | Activity [3] | Activity [4]
COc1cc(C(=O)NCCN2CCCC2)ccc1OCc1c(C)noc1C | Non-toxic | – | – | – | –
Cc1noc(C)c1COc1ccc(C(=O)NCC(c2ccco2)N(C)C)cc1 (configuration not stated) | Non-toxic | – | – | – | –
COc1cc(C(=O)NCC(c2ccc(C)cc2)N(C)C)ccc1OCc1c(C)noc1C (configuration not stated) | Non-toxic | Non-toxic | Non-toxic | – | –
N#Cc1ccc(N2C[C@H](N)C[C@H](C(F)(F)F)C2)c2cccnc12 | – | – | – | Active | Active
